A word on the IC50: it is the concentration that gives 50% inhibition.

We go through three compounds from ChEMBL document CHEMBL4373723 (J Med Chem, 2019).

For one data set, the target named is Frizzled-5 (Homo sapiens, UniProt Q13467). The experiment in a line: Binding affinity to recombinant human Frizzled-5 (Ala27 to Pro167 residues)/human IgG1 chimeric protein expressed in mouse NS0 cells by SPR assay. In general terms: In SPR one partner is held on a chip, and binding of the other changes the refractive index at the surface.
Data set [1] is described as follows: Binding affinity to recombinant human/mouse Frizzled-2 (Gln29 to Leu168 residues)/human IgG1 chimeric protein expressed in mouse NS0 cells assessed as reduction in interaction of TcdB with FZD7 incubated for 1 hr by competition ELISA. Type of data set: cell-based. (ELISA stands for enzyme-linked immunosorbent assay.)
The target of another data set is T1, Frizzled-4 (Homo sapiens, UniProt Q9ULV1).
T1 sequence (Q9ULV1 whole entry): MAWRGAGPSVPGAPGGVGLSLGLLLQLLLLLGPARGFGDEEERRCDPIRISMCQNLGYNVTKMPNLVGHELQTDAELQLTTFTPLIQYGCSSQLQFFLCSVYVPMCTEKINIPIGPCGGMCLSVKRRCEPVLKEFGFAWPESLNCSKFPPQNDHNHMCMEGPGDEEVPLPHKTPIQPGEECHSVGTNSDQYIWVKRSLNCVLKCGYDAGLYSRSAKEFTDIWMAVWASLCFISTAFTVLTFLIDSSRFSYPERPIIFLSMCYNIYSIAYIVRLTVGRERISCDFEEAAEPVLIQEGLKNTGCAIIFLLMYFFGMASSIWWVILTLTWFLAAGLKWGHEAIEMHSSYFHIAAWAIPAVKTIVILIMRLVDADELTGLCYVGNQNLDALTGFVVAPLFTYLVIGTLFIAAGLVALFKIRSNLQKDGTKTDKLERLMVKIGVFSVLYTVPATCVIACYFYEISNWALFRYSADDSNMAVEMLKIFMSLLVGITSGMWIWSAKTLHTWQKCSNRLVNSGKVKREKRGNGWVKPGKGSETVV
The experiment in a line: Binding affinity to recombinant human Frizzled-4 (Phe37 to Glu180 residues)/human IgG1 chimeric protein expressed in mouse NS0 cells by SPR assay.

The target of another data set is T2, Frizzled-9 (Homo sapiens, UniProt O00144).
T2 sequence (O00144 whole entry): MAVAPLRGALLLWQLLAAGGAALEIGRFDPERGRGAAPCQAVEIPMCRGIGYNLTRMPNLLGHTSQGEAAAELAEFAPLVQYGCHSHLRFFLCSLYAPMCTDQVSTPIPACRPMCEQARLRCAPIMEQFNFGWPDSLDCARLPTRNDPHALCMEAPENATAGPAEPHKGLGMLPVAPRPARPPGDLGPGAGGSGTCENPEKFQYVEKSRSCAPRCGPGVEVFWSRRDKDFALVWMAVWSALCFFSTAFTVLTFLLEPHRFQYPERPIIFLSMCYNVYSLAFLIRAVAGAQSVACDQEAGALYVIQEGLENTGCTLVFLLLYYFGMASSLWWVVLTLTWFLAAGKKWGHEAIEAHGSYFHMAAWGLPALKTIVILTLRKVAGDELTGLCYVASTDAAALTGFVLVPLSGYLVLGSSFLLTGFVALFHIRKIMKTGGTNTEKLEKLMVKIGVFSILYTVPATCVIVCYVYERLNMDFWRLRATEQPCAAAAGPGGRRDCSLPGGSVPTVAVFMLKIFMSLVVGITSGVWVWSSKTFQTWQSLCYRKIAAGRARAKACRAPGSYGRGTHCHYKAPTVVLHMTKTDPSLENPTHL
In words: Binding affinity to Frizzled-9 CRD (unknown origin).

The target of data set [2] is T3, Frizzled-7 (Homo sapiens, UniProt O75084). The experiment in a line: Binding affinity to recombinant human Frizzled-7 (Gln33 to Leu185 residues)/human IgG1 chimeric protein expressed in CHO cells assessed as reduction in interaction of TcdB with FZD7 by SPR.
Data set [3] is described as follows: Binding affinity to recombinant human/mouse Frizzled-2 (Gln29 to Leu168 residues)/human IgG1 chimeric protein expressed in mouse NS0 cells by SPR assay.
The target of data set [4] is T3, Frizzled-7. The experiment in a line: Inhibition of Frizzled-7 in HEK293 cells expressing Wnt assessed as reduction in Wnt signaling by firefly luciferase reporter gene assay. Type of data set: cell-based. (A reporter such as luciferase makes a cellular process visible.)
The species named for the next data set is Homo sapiens. The experiment in a line: Binding affinity to recombinant human/mouse Frizzled-2 (Gln29 to Leu168 residues)/human IgG1 chimeric protein expressed in mouse NS0 cells assessed as reduction in interaction of TcdB with FZD7 by SPR.
The target in data set [5] is T3, Frizzled-7. The experiment in a line: biochemical. The format is cell-based, CHO. The following applies: read-out: Kd.
The target in data set [6] is T3, Frizzled-7. The experiment in a line: Binding affinity to recombinant human Frizzled-7 (Gln33 to Leu185 residues)/human IgG1 chimeric protein expressed in CHO cells assessed as reduction in interaction of TcdB with FZD7 incubated for 1 hr by competition ELISA. The format is cell-based.
The target in a further data set is Frizzled-1 (Homo sapiens, UniProt Q9UP38). The experiment in a line: Binding affinity to recombinant human Frizzled-1 (Gln73 to His253 residues)/human IgG1 chimeric protein expressed in mouse NS0 cells by SPR assay.
Data set [7] has as its target T3, Frizzled-7. The following applies: CHO.
A further data set deals with T4, Frizzled-10 (Homo sapiens, UniProt Q9ULW2).
T4 sequence (Q9ULW2 whole entry): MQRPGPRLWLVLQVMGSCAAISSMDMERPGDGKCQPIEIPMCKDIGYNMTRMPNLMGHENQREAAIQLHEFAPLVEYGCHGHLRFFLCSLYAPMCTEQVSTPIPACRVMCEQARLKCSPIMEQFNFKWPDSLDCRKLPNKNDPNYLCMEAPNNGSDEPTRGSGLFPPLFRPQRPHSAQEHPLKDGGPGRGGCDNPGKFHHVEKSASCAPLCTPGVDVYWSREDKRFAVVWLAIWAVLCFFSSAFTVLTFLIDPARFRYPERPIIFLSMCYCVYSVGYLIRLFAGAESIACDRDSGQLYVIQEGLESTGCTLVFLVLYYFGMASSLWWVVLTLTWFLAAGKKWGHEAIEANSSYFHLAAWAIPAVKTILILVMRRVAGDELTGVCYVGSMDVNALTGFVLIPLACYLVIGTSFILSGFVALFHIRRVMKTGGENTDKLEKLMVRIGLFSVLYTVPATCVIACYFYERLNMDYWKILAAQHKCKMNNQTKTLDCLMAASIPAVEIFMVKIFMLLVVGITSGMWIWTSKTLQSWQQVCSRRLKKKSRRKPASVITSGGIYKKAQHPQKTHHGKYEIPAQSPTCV
The experiment in a line: Binding affinity to Frizzled-10 CRD (unknown origin).

Data set [8] has as its target T3, Frizzled-7. Type of data set: cell-based. The following applies: cho.
For another data set, the target named is Frizzled-8 (Homo sapiens, UniProt Q9H461). In words: Binding affinity to recombinant human Frizzled-8 (Ala25 to Pro172 residues)/human IgG1 chimeric protein expressed in CHO cells […] by SPR assay.
Data set [9] in a line: Stability in presence of TCEP assessed as disulfide reduction at 20 uM measured over 40 mins at 37 degC by LC-MS analysis. Type of data set: physicochemical.
For data set [10] the following is noted: mouse, serum, 24 h, 200 µM.
The target in data set [11] is T3, Frizzled-7. The experiment in a line: Binding affinity to recombinant human Frizzled-7 (Gln33 to Leu185 residues)/human IgG1 chimeric protein expressed in CHO cells assessed as association rate constant by SPR assay. The format is cell-based.
The conditions of data set [12]: 40 min, 20 µM.
For data set [13] the following is noted: 40 min, 20 µM. The source holds these as a separate data set.

The source made the active and inactive calls. The calls are words filed in the database; no cut-off is given here. Bridge positions count the residues as written; N and C are the ends. Peptide text beside a SMILES is read from it. I, II: the chains in the order shown.

Sequence of Frizzled-8 (Q9H461 whole entry): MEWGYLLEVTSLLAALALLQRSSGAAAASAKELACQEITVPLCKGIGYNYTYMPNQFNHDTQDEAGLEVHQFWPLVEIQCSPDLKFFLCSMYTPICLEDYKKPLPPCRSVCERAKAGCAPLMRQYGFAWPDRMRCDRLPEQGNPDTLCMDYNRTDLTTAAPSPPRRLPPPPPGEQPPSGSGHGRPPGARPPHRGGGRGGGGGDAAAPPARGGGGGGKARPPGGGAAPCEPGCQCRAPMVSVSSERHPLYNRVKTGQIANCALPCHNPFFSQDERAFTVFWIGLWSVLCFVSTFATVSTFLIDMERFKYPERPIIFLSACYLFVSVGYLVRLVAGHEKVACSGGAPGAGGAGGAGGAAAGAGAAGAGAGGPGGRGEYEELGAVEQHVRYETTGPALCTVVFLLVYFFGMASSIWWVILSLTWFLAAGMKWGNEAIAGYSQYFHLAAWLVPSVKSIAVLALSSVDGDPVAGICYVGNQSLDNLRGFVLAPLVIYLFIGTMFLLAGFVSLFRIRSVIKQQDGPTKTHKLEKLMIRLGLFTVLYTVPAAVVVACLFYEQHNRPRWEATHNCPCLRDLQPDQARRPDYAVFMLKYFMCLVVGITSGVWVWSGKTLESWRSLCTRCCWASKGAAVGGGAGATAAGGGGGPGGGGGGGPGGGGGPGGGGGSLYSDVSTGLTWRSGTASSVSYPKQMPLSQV
Sequence of Frizzled-1 (Q9UP38 whole entry): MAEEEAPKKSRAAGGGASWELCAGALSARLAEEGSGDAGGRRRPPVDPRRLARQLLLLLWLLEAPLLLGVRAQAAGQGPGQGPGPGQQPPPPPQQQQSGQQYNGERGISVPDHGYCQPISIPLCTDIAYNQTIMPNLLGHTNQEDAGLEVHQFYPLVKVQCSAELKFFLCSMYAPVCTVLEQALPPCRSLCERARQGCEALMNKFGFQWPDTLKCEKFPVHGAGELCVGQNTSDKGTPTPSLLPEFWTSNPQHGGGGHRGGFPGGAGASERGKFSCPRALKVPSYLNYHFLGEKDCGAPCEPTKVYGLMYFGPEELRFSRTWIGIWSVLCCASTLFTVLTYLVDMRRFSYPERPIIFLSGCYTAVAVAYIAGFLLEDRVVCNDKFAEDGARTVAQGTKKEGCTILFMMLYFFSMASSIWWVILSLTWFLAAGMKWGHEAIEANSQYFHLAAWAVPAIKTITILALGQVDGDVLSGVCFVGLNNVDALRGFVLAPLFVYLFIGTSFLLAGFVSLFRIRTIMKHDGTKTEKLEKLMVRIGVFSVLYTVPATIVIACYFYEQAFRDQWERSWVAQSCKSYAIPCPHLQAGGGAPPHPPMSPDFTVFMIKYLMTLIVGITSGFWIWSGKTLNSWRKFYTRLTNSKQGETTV
Sequence of Frizzled-5 (Q13467 whole entry): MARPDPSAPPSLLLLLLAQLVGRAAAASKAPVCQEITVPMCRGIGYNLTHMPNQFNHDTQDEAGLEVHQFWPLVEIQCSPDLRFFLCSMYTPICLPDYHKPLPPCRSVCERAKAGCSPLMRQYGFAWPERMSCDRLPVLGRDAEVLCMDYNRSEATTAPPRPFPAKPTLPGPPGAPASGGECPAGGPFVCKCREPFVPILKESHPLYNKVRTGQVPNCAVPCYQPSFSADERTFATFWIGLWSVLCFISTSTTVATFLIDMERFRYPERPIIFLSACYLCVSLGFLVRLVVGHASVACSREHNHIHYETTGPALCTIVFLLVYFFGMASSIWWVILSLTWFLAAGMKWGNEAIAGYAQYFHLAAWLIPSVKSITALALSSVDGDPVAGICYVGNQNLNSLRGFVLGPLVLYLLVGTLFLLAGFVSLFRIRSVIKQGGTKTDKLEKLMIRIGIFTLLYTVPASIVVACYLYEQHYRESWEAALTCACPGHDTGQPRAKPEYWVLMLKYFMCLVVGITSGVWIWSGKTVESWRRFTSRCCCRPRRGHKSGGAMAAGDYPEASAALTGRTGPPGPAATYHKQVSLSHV

Take `CC[C@H](C)[C@H](NC(=O)[C@H](Cc1cnc[nH]1)NC(=O)[C@H](CSSC[C@H](NC(=O)[C@H](Cc1c[nH]c2ccccc12)NC(=O)[C@H](Cc1cccc(Cl)c1)NC(=O)[C@H](CCC(=O)O)NC(=O)[C@H](CC(C)C)NC(=O)[C@H](CC(=O)O)NC(=O)[C@H](CC(=O)O)NC(=O)[C@@H](NC(C)=O)[C@H](C)O)C(=O)N[C@@H](Cc1cnc[nH]1)C(=O)N[C@H](C(=O)N[C@@H](CCSC)C(=O)N[C@@H](Cc1ccc(O)cc1)C(N)=O)[C@@H](C)CC)NC(=O)[C@H](Cc1c[nH]c2ccccc12)NC(=O)[C@H](CC(C)C)NC(=O)[C@H](CCC(=O)O)NC(=O)[C@H](Cc1cccc(Cl)c1)NC(=O)[C@H](CC(=O)O)NC(=O)[C@H](CC(=O)O)NC(=O)[C@@H](NC(C)=O)[C@H](C)O)C(=O)N[C@@H](CCSC)C(=O)N[C@@H](Cc1ccc(O)cc1)C(N)=O`: the Kd entry at Frizzled-5 is “Not Active”; on Frizzled-4 it was “Not Active”; at Frizzled-9, “Not Active”; in data set [3], 0.32 nM; at Frizzled-7 [5], 0.039 nM; on Frizzled-1 it was 0.34 nM. For the same compound, the Kd result at Frizzled-10 is “Not Active”; at Frizzled-7 [8], 0.54 ×10⁻³ /s; at Frizzled-8 it was “Not Active”. Moreover, the inhibition result (in [1]; on Frizzled-7 [6]) was “Dose-dependent effect” in each case. Moreover, the inhibition result on Frizzled-7 [2] and in the data set listed under Homo sapiens was “Active” throughout. The IC50 at Frizzled-7 [4] was determined as 53 nM. Besides, the Ka at Frizzled-7 [7] is 139 ×10⁵ /M/s.
For the compound `CC[C@H](C)[C@H](NC(=O)[C@H](Cc1cnc[nH]1)NC(=O)[C@H](CSSCC[C@H](NC(=O)[C@H](Cc1c[nH]c2ccccc12)NC(=O)[C@H](CC(C)C)NC(=O)[C@H](CCC(=O)O)NC(=O)[C@H](CC(C)C)NC(=O)[C@H](CC(=O)O)NC(=O)[C@H](CC(=O)O)NC(=O)[C@@H](NC(C)=O)[C@@H](C)O)C(=O)N[C@@H](Cc1cnc[nH]1)C(=O)N[C@H](C(=O)N[C@@H](CCSC)C(=O)N[C@@H](Cc1ccc(O)cc1)C(N)=O)[C@@H](C)CC)NC(=O)[C@H](Cc1c[nH]c2ccccc12)NC(=O)[C@H](CC(C)C)NC(=O)[C@H](CCC(=O)O)NC(=O)[C@H](CC(C)C)NC(=O)[C@H](CC(=O)O)NC(=O)[C@H](CC(=O)O)NC(=O)[C@@H](NC(C)=O)[C@H](C)O)C(=O)N[C@@H](CCSC)C(=O)N[C@@H](Cc1ccc(O)cc1)C(N)=O`, the Stability entry in data set [9], in [10] and in data set [12] was “Stable” each time. In addition, the Kd at Frizzled-7 [5] is 0.37 nM; on Frizzled-7 [8], 6.3 ×10⁻³ /s. Further, the “association rate constant (ka)” value at Frizzled-7 [11] stood at 1.7 ×10⁷ /M/s.
Regarding `CSCC[C@H](NC(=O)[C@@H](NC(=O)[C@H](Cc1cnc[nH]1)NC(=O)[C@H](CSSC[C@H](NC(=O)[C@H](Cc1c[nH]c2ccccc12)NC(=O)[C@H](Cc1ccccc1)NC(=O)[C@H](CCC(=O)O)NC(=O)[C@H](CC(C)C)NC(=O)[C@H](CC(=O)O)NC(=O)[C@H](CC(=O)O)NC(=O)[C@H](CO)NC(C)=O)C(=O)N[C@@H](Cc1cnc[nH]1)C(=O)N[C@H](C(=O)N[C@@H](CCSC)C(=O)N[C@@H](Cc1ccc(O)cc1)C(N)=O)C(C)C)NC(=O)[C@H](Cc1c[nH]c2ccccc12)NC(=O)[C@H](Cc1ccccc1)NC(=O)[C@H](CCC(=O)O)NC(=O)[C@H](CC(C)C)NC(=O)[C@H](CC(=O)O)NC(=O)[C@H](CC(=O)O)NC(=O)[C@H](CO)NC(C)=O)C(C)C)C(=O)N[C@@H](Cc1ccc(O)cc1)C(N)=O` (I: Ac-SDDLEFWCHVMY-NH2 / II: Ac-SDDLEFWCHVMY-NH2; disulfide I:8-II:8), the Kd entry on Frizzled-5 is “Not Active”; at Frizzled-4, “Not Active”; at Frizzled-9 it was “Not Active”; in [3], 0.99 nM; on Frizzled-7 [5], 0.37 nM; at Frizzled-1, 1.12 nM. The Kd entry is “Not Active” at Frizzled-10, 2.3 ×10⁻³ /s on Frizzled-7 [8] and “Not Active” at Frizzled-8. Also, the inhibition result (in data set [1]; at Frizzled-7 [6]) was “Dose-dependent effect” in each case. Further, the Stability result in data set [9] is recorded as “Unstable”; in [13], “Unstable”; in [10], “Stable”; in data set [12], “Unstable”. At Frizzled-7 [7], this compound came in with a Ka of 61.9 ×10⁵ /M/s.
